Assay results as given in patent publication US10051857B2, “Formulation component” (SYNGENTA LIMITED, priority 2011, dated 2018).

Key:
Assay type in all cases: in vivo
[1] = system: Brachiaria decumbens (BRADE); experiment: Glasshouse adjuvant test with mesotrione (Example 6); settings: mesotrione 45 or 90 g/ha, adjuvant 0.2% v/v or none, 200 l/ha; growth stage 13/14; mean over two rates, three replicates, 7, 14 and 21 days
Procedure: (§1) Compound 1 was tested in a glasshouse against four weed species using the herbicide mesotrione. A 20% w/w stock emulsion of compound 1 was prepared additionally containing 2% w/w Gohsenol® GL03 and 2% w/w Pluronic® PE10500 as surfactants. Using this, an agrochemical composition was prepared containing 0.2% v/v of the adjuvant in a track sprayer and was applied at a volume of 200 liters per hectare. Mesotrione was applied at either 45 or 90 grams of pesticide per hectare on each of the weed species. The weed species and their growth stage at spraying were Amaranthus tuberculatus (AMATE; growth stage 13/14), Brachiaria decumbens (BRADE; growth stage 13/14), Digitaria sanguinalis (DIGSA; growth stage 14), and Polygonum convolvulus (POLCO; growth stage 11/11.5).
(§2) Each test was replicated three times. The efficacy of the herbicide was assessed visually and expressed as a percentage of the leaf area killed. Samples were assessed at time periods of 7, 14 and 21 days following application. The results shown in Table 6 below are mean averages over the two rates of mesotrione, three replicates and the three assessment timings, and are compared to the efficacy of mesotrione in absence of adjuvant.

[2] = system: Digitaria sanguinalis (DIGSA); experiment: as above; settings: mesotrione 45 or 90 g/ha, adjuvant 0.2% v/v or none, 200 l/ha; growth stage 14; mean over two rates, three replicates, 7, 14 and 21 days
Procedure: as §1, §2

[3] = system: Amaranthus tuberculatus (AMATE); experiment: as above; settings: mesotrione 45 or 90 g/ha, adjuvant 0.2% v/v or none, 200 l/ha; growth stage 13/14; mean over two rates, three replicates, 7, 14 and 21 days
Procedure: as §1, §2

Setaria viridis (SETVI) = experiment: Glasshouse adjuvant test with fomesafen (Example 5); settings: fomesafen 60 or 120 g/ha, adjuvant 0.2% v/v or none, 200 l/ha; growth stage 13; mean over two rates, three replicates, 7, 14 and 21 days
Procedure: (§3) Compound 1 (N, N-diethyl-3-methylbenzamide) was tested in a glasshouse against four weed species using the herbicide fomesafen. An agrochemical composition was prepared containing 0.2% v/v of the adjuvant in a track sprayer and was applied at a volume of 200 liters per hectare. Fomesafen was applied at either 60 or 120 grams of pesticide per hectare on each of the weed species. The weed species and their growth stage at spraying were Chenopodium album (CHEAL; growth stage 13/14), Abutilon theophrasti (ABUTH; growth stage 12), Setaria viridis (SETVI; growth stage 13), and Xanthium strumarium (XANST; growth stage 12).
(§4) Each spray test was replicated three times. The efficacy of the herbicide was assessed visually and expressed as a percentage of the leaf area killed. Samples were assessed at time periods of 7, 14 and 21 days following application. The results shown in Table 5 below are mean averages over the two rates of fomesafen, three replicates and the three assessment timings, and are compared to the efficacy of fomesafen in the absence of adjuvant.

[4] = system: Abutilon theophrasti (ABUTH); experiment: as above; settings: fomesafen 60 or 120 g/ha, adjuvant 0.2% v/v or none, 200 l/ha; growth stage 12; mean over two rates, three replicates, 7, 14 and 21 days
Procedure: as §3, §4

[5] = system: Xanthium strumarium (XANST); experiment: as above; settings: fomesafen 60 or 120 g/ha, adjuvant 0.2% v/v or none, 200 l/ha; growth stage 12; mean over two rates, three replicates, 7, 14 and 21 days
Procedure: as §3, §4

[6] = system: Chenopodium album (CHEAL); experiment: as above; settings: fomesafen 60 or 120 g/ha, adjuvant 0.2% v/v or none, 200 l/ha; growth stage 13/14; mean over two rates, three replicates, 7, 14 and 21 days
Procedure: as §3, §4

[7] = system: four weed species (ALOMY, AVEFA, LOLPE, SETVI); experiment: Glasshouse adjuvant test with pinoxaden (Example 8), mean across species; settings: pinoxaden 7.5 or 15 g/ha, adjuvant 0.2% v/v or none
Procedure: The adjuvant shown in example 1 was tested in a glasshouse against four weed species in combination with the herbicide pinoxaden. A 20% w/w stock emulsion of compound 1 was prepared additionally containing 2% w/w Gohsenol® GL03 and 2% w/w Pluronic® PE10500 as surfactants. Using this, an agrochemical composition was prepared containing 0.2% v/v of the adjuvant in a track sprayer and was applied at a volume of 200 liters per hectare. Pinoxaden was applied at either 7.5 or 15 grams of pesticide per hectare on each of the weed species. The weed species and their growth stage at spraying were Alopecurus myosuroides (ALOMY; growth stage 13), Avena fatua (AVEFA; growth stage 12); Lolium perenne (LOLPE; growth stage 13), Setaria viridis (SETVI; growth stage 14).
as §4, with “of” for “of 7,”, “Table 8” for “Table 5 below”, “of pinoxaden,” for “of fomesafen,”, “the two” for “the three”, “of pinoxaden” for “of fomesafen”

`CCN(CC)C(=O)c1cccc(C)c1` [Compound 1, N, N-diethyl-3-methylbenzamide] was tested, and the “Mean percentage kill BRADE” value [1] was 28.9%, the “Mean percentage kill DIGSA” value [2] was 28.6% and the “Mean percentage kill AMATE” value [3] was 71.7%. The “Mean percentage kill SETVI” value (Setaria viridis (SETVI)) was 15.8%, the “Mean percentage kill ABUTH” value [4] was 38.9% and the “Mean percentage kill XANST” value [5] was 35.6%. The “Mean percentage kill CHEAL” value [6] was 80.3% and the “Mean percentage kill, Mean across species” value [7] was 22.1%.
